Earlier results in patent publication US20190209710A1, “[…] AND CHEWING GUM […] A […] FOR THE TASTE-BASED DETECTION OF VIRUSES” (Julius-Maximilians-Universitaet Wuerzburg, priority 2016, published 2019).

Key:
bacterial sialidases = conditions: literature: Beau et al., Eur. J. Biochem., 106 (1980) 531-540
viral sialidases = conditions: literature: Beau et al., Eur. J. Biochem., 106 (1980) 531-540

CO[C@H]1CC(O)(C(=O)O)O[C@@H]([C@H](O)[C@H](O)CO)[C@@H]1NC(C)=O (some centres unmarked) [4-methoxy-Neu5Ac]
cleavage by bacterial sialidases (bacterial sialidases): not cut | cleavage by viral sialidases (viral sialidases): very quickly
